Counter-ions that a name gives are not always drawn. Active and inactive are the calls of the source.

From ChEMBL document CHEMBL3991601, “The target landscape of clinical kinase drugs” (Science, 2017) come the findings set out here.

Test [1] has as its target T1, Succinate--CoA ligase [ADP-forming] subunit beta, mitochondrial (Homo sapiens, UniProt Q9P2R7).
T1 sequence (Q9P2R7 whole entry): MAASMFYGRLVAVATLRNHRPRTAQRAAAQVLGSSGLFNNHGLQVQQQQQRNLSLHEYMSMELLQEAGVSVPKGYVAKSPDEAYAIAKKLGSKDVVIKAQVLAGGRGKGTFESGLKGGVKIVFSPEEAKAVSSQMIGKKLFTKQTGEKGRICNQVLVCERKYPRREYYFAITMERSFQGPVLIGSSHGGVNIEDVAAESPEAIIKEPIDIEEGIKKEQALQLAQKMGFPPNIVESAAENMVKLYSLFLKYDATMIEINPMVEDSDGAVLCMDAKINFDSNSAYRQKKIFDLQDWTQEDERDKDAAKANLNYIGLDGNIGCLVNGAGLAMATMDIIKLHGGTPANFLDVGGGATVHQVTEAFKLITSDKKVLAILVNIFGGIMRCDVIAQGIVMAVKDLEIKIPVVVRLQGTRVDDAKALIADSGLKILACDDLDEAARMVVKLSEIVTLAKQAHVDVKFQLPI

Test [2] addresses T2, Mitogen-activated protein kinase kinase kinase kinase 2 (Homo sapiens, UniProt Q12851).
T2 sequence (Q12851 whole entry): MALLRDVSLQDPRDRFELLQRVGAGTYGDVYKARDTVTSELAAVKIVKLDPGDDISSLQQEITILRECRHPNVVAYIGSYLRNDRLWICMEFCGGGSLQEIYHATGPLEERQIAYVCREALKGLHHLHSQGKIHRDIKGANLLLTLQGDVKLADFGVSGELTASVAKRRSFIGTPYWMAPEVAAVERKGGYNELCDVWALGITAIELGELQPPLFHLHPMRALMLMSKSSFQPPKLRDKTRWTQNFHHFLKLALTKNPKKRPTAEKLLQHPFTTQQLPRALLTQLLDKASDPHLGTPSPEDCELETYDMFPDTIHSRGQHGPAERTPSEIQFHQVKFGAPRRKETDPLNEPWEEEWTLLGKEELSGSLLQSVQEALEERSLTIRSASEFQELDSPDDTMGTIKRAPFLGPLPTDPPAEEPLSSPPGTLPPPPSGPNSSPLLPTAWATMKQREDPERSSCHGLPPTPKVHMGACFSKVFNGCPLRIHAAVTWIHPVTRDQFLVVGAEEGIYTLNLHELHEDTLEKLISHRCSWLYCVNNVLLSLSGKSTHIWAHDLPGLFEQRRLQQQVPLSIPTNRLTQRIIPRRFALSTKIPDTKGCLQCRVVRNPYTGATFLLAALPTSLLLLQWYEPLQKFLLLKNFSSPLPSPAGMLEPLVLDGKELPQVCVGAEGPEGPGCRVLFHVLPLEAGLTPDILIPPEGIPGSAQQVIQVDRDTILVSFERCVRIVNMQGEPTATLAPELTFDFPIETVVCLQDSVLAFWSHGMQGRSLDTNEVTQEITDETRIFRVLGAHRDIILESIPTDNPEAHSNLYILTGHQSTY

Test [3] addresses Casein kinase I isoform alpha (Homo sapiens, UniProt P48729).
Test [4] addresses T3, Glycogen phosphorylase, liver form (Homo sapiens, UniProt P06737).
T3 sequence (P06737 whole entry): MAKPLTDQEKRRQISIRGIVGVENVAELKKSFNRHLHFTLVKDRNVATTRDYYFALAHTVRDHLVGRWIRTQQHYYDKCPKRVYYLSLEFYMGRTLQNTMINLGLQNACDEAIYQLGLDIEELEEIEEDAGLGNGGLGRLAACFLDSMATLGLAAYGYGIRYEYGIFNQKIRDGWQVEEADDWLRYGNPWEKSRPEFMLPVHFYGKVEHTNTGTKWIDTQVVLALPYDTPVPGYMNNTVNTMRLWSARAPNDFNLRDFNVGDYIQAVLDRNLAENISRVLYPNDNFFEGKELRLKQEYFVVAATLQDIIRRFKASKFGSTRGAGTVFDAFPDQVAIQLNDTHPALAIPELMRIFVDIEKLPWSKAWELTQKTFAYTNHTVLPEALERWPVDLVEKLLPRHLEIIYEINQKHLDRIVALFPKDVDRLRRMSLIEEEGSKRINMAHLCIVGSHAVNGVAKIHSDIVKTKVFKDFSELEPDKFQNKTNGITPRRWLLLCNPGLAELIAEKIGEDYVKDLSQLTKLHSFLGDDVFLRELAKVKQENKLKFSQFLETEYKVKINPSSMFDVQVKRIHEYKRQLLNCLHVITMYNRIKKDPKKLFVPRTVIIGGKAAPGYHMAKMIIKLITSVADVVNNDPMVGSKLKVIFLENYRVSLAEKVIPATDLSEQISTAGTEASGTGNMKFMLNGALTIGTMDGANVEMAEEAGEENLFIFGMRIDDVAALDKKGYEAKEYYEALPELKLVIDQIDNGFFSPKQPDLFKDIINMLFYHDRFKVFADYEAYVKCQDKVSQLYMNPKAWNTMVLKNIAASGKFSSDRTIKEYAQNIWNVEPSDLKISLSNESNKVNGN
The format is subcellular, K-562, COLO 205, SK-N-BE(2) and MV-4-11, Cell lysate. The settings on record: read-out: Kd apparent.
Also: in the data inactive means no Kd found up to 30 µM.

Casein kinase I isoform alpha, sequence (P48729 whole entry, canonical isoform): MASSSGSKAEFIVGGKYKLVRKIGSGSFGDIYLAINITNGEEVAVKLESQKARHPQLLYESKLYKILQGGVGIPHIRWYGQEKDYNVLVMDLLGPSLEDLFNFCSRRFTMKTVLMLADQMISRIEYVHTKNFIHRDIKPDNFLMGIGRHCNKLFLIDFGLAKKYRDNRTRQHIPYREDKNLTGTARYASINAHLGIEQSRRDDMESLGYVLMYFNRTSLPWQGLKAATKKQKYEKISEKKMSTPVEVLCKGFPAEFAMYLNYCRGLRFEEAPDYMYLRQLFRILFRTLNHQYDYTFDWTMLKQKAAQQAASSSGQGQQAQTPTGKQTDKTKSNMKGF

Regarding `C[C@@H](Oc1cc(C(=O)Nc2ccc(C(=O)N3CCN(C)CC3)cc2)nnc1N)c1c(Cl)ccc(F)c1Cl`, the Kd in test [1] is > 30 µM (inactive); in test [2], 0.122 µM (active); in test [3], > 30 µM (inactive); in test [4], > 30 µM (inactive).

Take `C[C@H]1CNCCCN1S(=O)(=O)c1cccc2cncc(F)c12`: the Kd in test [1], in test [2], in test [3] and in test [4] was > 30 µM (inactive) each time.

As to `CC(=O)c1cnc2ccc(-c3cc(Cl)c(O)c(Cl)c3)nc2c1N[C@H]1CC[C@H](CN(C)C)CC1`, the Kd in test [1] was > 30 µM (inactive); in test [3], 0.931 µM (active); in test [4], > 30 µM (inactive).

On to `CCNC(=O)C#Cc1ccc2c(c1)NC(=O)/C2=C(\Nc1ccc(CN(C)C)cc1)c1ccccc1`, for which the Kd in test [1], in test [2], in test [3] and in test [4] was > 30 µM (inactive) in each case.

In the case of `C=CC(=O)N1CCC[C@H](n2c(=O)n(-c3ccc(Oc4ccccc4)cc3)c3c(N)ncnc32)C1`, the Kd in test [1], in test [2], in test [3] and in test [4] was > 30 µM (inactive) in each case.

For `COCc1c(-c2ccc(NC(=O)Nc3cc(C(F)(F)F)ccc3F)c(F)c2)c2c(N)ncnn2c1CN1CCOCC1`, the Kd was > 30 µM (inactive) in test [1], 4.16 µM (active) in test [2], > 30 µM (inactive) in test [3] and > 30 µM (inactive) in test [4].

Turning to `Cc1nc(NC(=O)N2CCC[C@H]2C(N)=O)sc1-c1ccnc(C(C)(C)C(F)(F)F)c1` [ALPELISIB], the Kd in test [1], in test [2], in test [3] and in test [4] was > 30 µM (inactive) each time.

For `O=C(Nc1c[nH]nc1-c1nc2cc(CN3CCOCC3)ccc2[nH]1)NC1CC1` [AT-9283], the Kd in test [1], in test [2], in test [3] and in test [4] was > 30 µM (inactive) each time.

In the case of `C=CC(=O)Nc1cc2c(Nc3ccc(F)c(Cl)c3)ncnc2cc1C#CC(C)(C)N1CCN(C)CC1` [AV-412 FREE BASE], the Kd in test [1], in test [2], in test [3] and in test [4] was > 30 µM (inactive) throughout.

In the case of `COc1cc([C@@H]2c3cc4c(cc3[C@H](O)[C@H]3COC(=O)[C@@H]23)OCO4)cc(OC)c1OC` [AXL-1717], the Kd in test [1], in test [2], in test [3] and in test [4] was > 30 µM (inactive) in each case.

As to `Cn1cnc2c(F)c(Nc3ccc(Br)cc3F)c(C(=O)NOCCO)cc21` [BINIMETINIB], the Kd in test [1], in test [2], in test [3] and in test [4] was > 30 µM (inactive) each time.

`CCn1c(C(=O)N(C2CC2)C2CC2)cc2c3c(ncn3C)c(Nc3cc(C)n(C)n3)nc21` [BMS-911543]: the Kd in test [1], in test [2], in test [3] and in test [4] was > 30 µM (inactive) throughout.

On to `COc1cc2ncnc(Oc3cccc(NC(=O)Nc4cc(C(C)(C)C(F)(F)F)on4)c3)c2cc1OC` [CEP-32496], for which the Kd in test [1] is > 30 µM (inactive); in test [2], 2.82 µM (active); in test [3], > 30 µM (inactive); in test [4] it was > 30 µM (inactive).

Take `Cc1cc(Nc2ncc(Cl)c(Nc3ccccc3S(=O)(=O)C(C)C)n2)c(OC(C)C)cc1C1CCNCC1` [CERITINIB]: the Kd in test [1], in test [2], in test [3] and in test [4] was > 30 µM (inactive) throughout.

On to `COc1c(OCCCN2CCOCC2)ccc2c1N=C(NC(=O)c1cnc(N)nc1)N1CCN=C21` [COPANLISIB], for which the Kd in test [1], in test [2], in test [3] and in test [4] was > 30 µM (inactive) in each case.

Take `COCC(=O)NC/C=C/c1ccc2ncnc(Nc3ccc(Oc4ccc(C)nc4)c(C)c3)c2c1` [CP-724714]: the Kd in test [1], in test [2], in test [3] and in test [4] was > 30 µM (inactive) each time.

For `CCS(=O)(=O)N1CCN(c2ccc(Nc3ncc(C(N)=O)c(NC4CC4)n3)cc2)CC1` [Cerdulatinib Hydrochloride], the Kd in test [1], in test [2], in test [3] and in test [4] was > 30 µM (inactive) each time.

As for `Cc1nc2cc(-n3ncc(C(=O)c4cc5ccccc5[nH]4)c3N)ccc2[nH]1` [FGFR INHIBITOR DEBIO 1347], the Kd in test [1], in test [2], in test [3] and in test [4] was > 30 µM (inactive) each time.

In the case of `O=C(Nc1nc2cccc(-c3ccc(CN4CCS(=O)(=O)CC4)cc3)n2n1)C1CC1` [FILGOTINIB], the Kd in test [1], in test [2], in test [3] and in test [4] was > 30 µM (inactive) throughout.

For `COc1ccc(S(=O)(=O)N(C(C)=O)c2ccccc2/C=C/c2cc[n+]([O-])cc2)cc1` [HMN-214], the Kd in test [2], in test [3] and in test [4] was > 30 µM (inactive) each time.

Turning to `O=C(Nc1cc(C(F)(F)F)cc(C(F)(F)F)c1)c1cc(Cl)ccc1O` [IMD-0354], the Kd in test [1], in test [2], in test [3] and in test [4] was > 30 µM (inactive) in each case.

Take `Cc1cnc(NC(=O)Nc2cc(Br)c(C)cc2OC[C@@H]2CNCCO2)cn1` [RABUSERTIB]: the Kd in test [2], in test [3] and in test [4] was > 30 µM (inactive) in each case.

For `CO[C@H]1C[C@@H]2CC[C@@H](C)[C@@](O)(O2)C(=O)C(=O)N2CCCC[C@H]2C(=O)O[C@H]([C@H](C)C[C@@H]2CC[C@@H](OP(C)(C)=O)[C@H](OC)C2)CC(=O)[C@H](C)/C=C(\C)[C@@H](O)[C@@H](OC)C(=O)[C@H](C)C[C@H](C)/C=C/C=C/C=C/1C` [RIDAFOROLIMUS], the Kd in test [2], in test [3] and in test [4] was > 30 µM (inactive) each time.

Consider `CN1CCN(CCOc2cc(OC3CCOCC3)c3c(Nc4c(Cl)ccc5c4OCO5)ncnc3c2)CC1` [SARACATINIB], for which the Kd in test [2], in test [3] and in test [4] was > 30 µM (inactive) in each case.
